We go through one molecule from patent US11267809B2, “BAF complex modulating compounds and methods of using the same” (THE BOARD OF TRUSTEES OF THE LELAND STANFORD JUNIOR …, priority 2017, dated 2022).

The test system of data set [1] is A-704 renal clear cell carcinoma cell line. Kind of data set: Synergy viability assay, A-704. Format: cell-based, human. To be noted: with VE-821, PBRM1 mutant line. The source says:
(§1) In ARID1A-deficient tumors, ATR inhibition is thought to trigger premature mitotic entry and chromosome instability that cannot be resolved, resulting in mitotic catastrophe^27. […] We sought to assess whether generic BAF inhibition might sensitize a host of cancers to ATR inhibition. We tested the efficacy of BAFi and ATRi on nine additional human cancer cell lines including seven Breast cancer cell lines (HCC1143, HCC1954, HCC1187, MDAMB-468, MDA-MB-436, Cal-51, MCF-7) and two renal clear cell carcinoma cell lines (A-704, and ACHN). Cal-51 and MCF-7 are both considered aggressive, highly mutated breast cancer cell lines with numerous COSMIC Census gene mutations (FIG. 10). HCC1143 and MDA-MB-468 are sporadic basal-likecancers, HCC1187 is a triple-negative breast cancer, and HCC1954 and MDA-MB-436 are BRCA1 mutant breast cancers which harbor single driver mutations. To assess synergy, each cell line was treated with 5 doses of VE-821 (1.25 uM-20 uM) and 5 doses of Baficillin1 (1.25 uM-20 uM), both independently and with all possible combinations. Like HCT-116 cells, Baficillin1 sensitized MCF-7 and Cal-51 cells lines to treatment with VE-821 (FIG. 6a).
(§2) Viability assays were performed in 384-well plates. Cells were plated at 500 cells/well. […] After 5 days, cellular viability was measured using CellTitre blue, as described by the manufacturer.

Data set [2] relates to HCT116 (ARID1A−/−) cell line. Briefly: Synergy viability assay, HCT116 ARID1A(-/-). Format: cell-based, human. From the text: SMARCA4, the primary target of our original screen, is present in both human BAF and PBAF complexes in cancer^12. PBAF complexes differ from BAF complexes by incorporation of specific subunits. Specifically, PBAF complexes contain ARID2 (as opposed to ARID1A/B), PHF10 (BAF45a) (as opposed to […] (BAF45d)), PBRM1, and lack the BAF-specific subunit SS18. PBAF specific subunits are also frequently mutated in cancer, specifically renal clear cell carcinomas and cholangiocarcinomas^33-36. To assess whether the lead compound is targeting BAF, PBAF complexes, or both, we constitutively knocked down ARID1A or ARID2 by lentiviral transduction of HCT116 cells and compared the BAFi/ATRi synergy to the wild-type (ARID1A+/+).
Isogenic HCT116 ARID1A(+/+) and ARID1A(−/−) cell lines were originally obtained from Horizon Discovery. MCF-7, Cal-51, A-704, and MDA-MB-436, MDA-MB-468, HCC1143, HCC1187, HCC1954, and ACHN cell lines were obtained from American Type […]. All cell lines were grown in McCoy's 5a Media supplemented with 10% FBS.
Viability assays were performed in 384-well plates. Cells were plated at 500 cells/well. Each drug was administered in 5-doses with 4 replicates per plate, and each 5×5 drug combination was administered with 8 replicates per plate, 24 hours after seeding. All error bars represent 4 or 8 technical replicates averaged over 3 independent experiments. Media containing fresh drug was replaced every 48 hours. After 5 days, cellular viability was measured using CellTitre blue, as described by the manufacturer.

The test system of another data set is mESCs. Kind of data set: Toxicity in mouse embryonic stem cells (cell cycle arrest). Format: cell-based. As to the method:
From our initial Bmi1 screen, we chose 8 representative compounds to compare to the lead candidate which were either commercially available, or comprised of the same oxadiazacyclodecone 12-member macrocyclic stereoisomer backbone as Baficillin1. […] To examine a structure-activity-relationship of the compounds, HCT116 cells were then treated with increasing doses of VE-821 (1 uM-30 uM) and increasing doses of the putative inhibitors (1 uM-30 uM), both independently and with all possible combinations followed by quantification of synergy (FIG. 4c-h).
FIG. 4: Structure Activity Relationship of Putative BAF Inhibitors. […]
(§3) For hour-by-hour analysis, cells were collected, rinsed with PBS, and vortexed while adding 1mL ice cold 70% ethanol. […] Individual cells were gated based on forward and side scatter, auto fluorescent cells were omitted, and remaining cells were then analyzed for propidium iodide levels. To determine the percent of cells in each phase, DNA content histograms histograms were analyzed using R-package “mixtools” EM algorithm for mixtures of univariate normals. The areas of each mixed normal distribution were calculated to represent the total number of cells in each phase of the cell cycle. […] ESCs were incubated with BrdU for 1 h and the percent of cells in G2/M, stained with 7-AAD and analyzed on a BD FACScan.

Another data set relates to Cal-51 cells. Kind of data set: Synergy viability assay, Cal-51. Format: cell-based, human. Particulars: with VE-821 (1.25-20 uM each).
Description: as §1, §2

For a further data set, the system named is HCT116 ARID1A(+/+) cells. Briefly: Cell cycle analysis after double thymidine block synchronization. Format: cell-based, human. As to the method:
To investigate this, we synchronized cells in the early G1/S phase and then tracked their progression through the cell cycle upon release into media containing BAFi. To assess the full cell cycle, time points were collected beginning at early G0/G1 of the second cycle following release from thymidine block. […] This is consistent with our observation that BAFi independently has minimal toxicity or effects on proliferation. […] Further, we observe that when BAFi cells are treated with VE-821, their decreased entry and slowed progression through S Phase results in an inability to successfully complete their transition through the cell cycle, akin to knockout of ARID1A. […]
as §3

Each structure is given as a SMILES string.

As for `CO[C@H]1CN(C)C(=O)c2cc(NC(=O)NC(C)C)ccc2OC[C@H](C)N(Cc2ccc(-c3ccccn3)cc2)C[C@@H]1C` [Baficillin1], in data set [1], the “combinatorial effects of BAFi/ATRi” value is “antagonism”. For the same molecule, in data set [2] (single agent, 5 continuous days), the “sensitivity (cell survival) compared to wild-type HCT116” value was “slightly less sensitive”. Besides, in data set [2] (with VE-821, 5 days), the “combination index (CI −/−)” value is reported as 1.44±0.12. Moreover, in the data set on mESCs, the “toxicity in mESCs” value is “largely non-toxic”. The “combination index (CI Cal-51)” value with Cal-51 cells turned out to be 0.57±0.09. The S/G2 crossover time with HCT116 ARID1A(+/+) cells (10 uM Baficillin1 in combination with ATRi (VE-821 10 uM)) is listed as approximately 7.5 h. Besides, in the data set with HCT116 ARID1A(+/+) cells (Baficillin1 10 uM alone), the cell cycle rate is approximately 11 hr per cycle.
